Experimental data from paper PMC2706954, “Dissecting Structural and Functional Diversity of the Lantibiotic Mersacidin” (Chemistry & Biology, 2009).
Several values for one entry are separate records, joined by “and”; a condition that tells them apart may be missing. Equal values may be shown once.

Assays:
E. faecalis ATCC29212 = assay type: cell-based; conditions: CLSI recommendations; incubated aerobically with shaking 18–20 hr at 37°C; MIC = lowest concentration preventing visible growth; purified variants
Experimental: (§1) Antibacterial activity of fermentation samples or purified samples was determined by Mueller-Hinton Agar diffusion bioassays using M. luteus ATCC 4698 as the indicator strain. Susceptibility testing (minimum inhibitory concentration [MIC]) for all aerobic organisms, with the exception of S. pneumoniae, was performed following the recommendations of CLSI. Susceptibility testing of S. pneumoniae was performed by two-fold serial dilutions in brain-heart-infusion broth supplemented with 50 μg/ml Ca^2+. Vancomycin was used as a reference antibiotic, and plates were incubated aerobically, with shaking, for 18–20 hr at 37°C with the MIC defined as the lowest concentration of drug that prevented visible growth.

S. epidermidis NCTC11047 = assay type: cell-based; conditions: CLSI recommendations; incubated aerobically with shaking 18–20 hr at 37°C; MIC = lowest concentration preventing visible growth; purified variants
Experimental: as §1

E. faecium 7131121 VRE = assay type: cell-based; conditions: vancomycin-resistant clinical isolate; CLSI recommendations; 18–20 hr at 37°C; MIC = lowest concentration preventing visible growth
Experimental: as §1

E. faecium ATCC19579 = assay type: cell-based; conditions: CLSI recommendations; incubated aerobically with shaking 18–20 hr at 37°C; MIC = lowest concentration preventing visible growth; purified variants
Experimental: as §1

S. pneumoniae BAA-255 = assay type: cell-based, Streptococcus pneumoniae; conditions: two-fold serial dilutions in brain-heart-infusion broth with 50 μg/ml Ca2+; 18–20 hr at 37°C; MIC = lowest concentration preventing visible growth
Experimental: as §1

MRSA = conditions: ref Kruszewska et al., 2004; cited from earlier work
Description: (§2) Mersacidin has antibacterial activity against Gram-positive pathogens; like vancomycin, it binds to the peptidoglycan precursor lipid II ([Brotz et al., 1995; Brotz et al., 1997]).

[1] = system: methicillin-resistant Staphylococcus aureus (MRSA); conditions: administered subcutaneously; at concentrations comparable to vancomycin; ref Chatterjee et al., 1992b; cited from earlier work
Description: as §2

M. luteus ATCC4698 = assay type: cell-based, Micrococcus luteus; conditions: CLSI recommendations; incubated aerobically with shaking 18–20 hr at 37°C; MIC = lowest concentration preventing visible growth; purified variants
Experimental: as §1

S. aureus R33 MRSA = assay type: cell-based, Staphylococcus aureus; conditions: CLSI recommendations; incubated aerobically with shaking 18–20 hr at 37°C; MIC = lowest concentration preventing visible growth; purified variants
Experimental: as §1

S. aureus SH1000 = assay type: cell-based, Staphylococcus aureus; conditions: CLSI recommendations; incubated aerobically with shaking 18–20 hr at 37°C; MIC = lowest concentration preventing visible growth; purified variants
Experimental: as §1

Mersacidin [reference compound]
MIC E. faecalis ATCC29212 (E. faecalis ATCC29212): 64 µg/mL
MIC S. epidermidis NCTC11047 (S. epidermidis NCTC11047): 16 µg/mL and 32 µg/mL
MIC E. faecium 7131121 VRE (E. faecium 7131121 VRE): 64 µg/mL
MIC E. faecium ATCC19579 (E. faecium ATCC19579): 32 µg/mL
MIC S. pneumoniae BAA-255 (S. pneumoniae BAA-255): 2 µg/mL
eradication of MRSA in a mouse rhinitis model (MRSA): eradicates MRSA
cure of abscesses in rats [1]: cures
cure of systemic MRSA infections in mice [1]: cures
MIC M. luteus ATCC4698 (M. luteus ATCC4698): 1 µg/mL and 2 µg/mL
MIC S. aureus R33 MRSA (S. aureus R33 MRSA): 32 µg/mL
MIC S. aureus SH1000 (S. aureus SH1000): 32 µg/mL
